Here are results for eight molecules from patent EP0788796A1, “URICOSURIC AGENT” (priority 1995, dated 1997).

Read-outs that look alike come from different tables or passages of the source. Bounds are passed on as bounds.

Data set [1] is described as follows: Uric acid excreting and diuretic actions in rats. It is filed as in vivo, Wistar rats. The settings on record: for response vs control in vivo at 300 mg/kg / response vs control in vivo at 1000 mg/kg: Rattus norvegicus, female Wistar rats, urine collected up to 5 h, relative value with control = 100; for response vs control in vivo at 300 mg/kg: 300 mg/kg oral; for response vs control in vivo at 1000 mg/kg: 1000 mg/kg oral; for urine volume: result in words, summary of Table 1. How it is done:
Three female Wistar rats (4-week old) in each group were administered orally with 300 or 1000 mg/kg of a test compound in a volume of 10 ml/kg as suspended in an aqueous solution of 0.5% carboxymethylcellulose sodium or 5% gum arabic; immediately thereafter, the animals were loaded orally with 25 ml/kg of physiological saline and the urine was collected up to 5 h after the administration of the test compound. The collected urine was immediately measured quantitatively and the urinary concentration of uric acid was measured by a urikase method in accordance with the procedure of Kabasakalian et al. [Kabasakalian, P. et al.: Clin Chem., 19, 522-524 (1973)] and the urinary excretion of uric acid was calculated. […]

Data set [2] is described as follows: Acute toxicity test. It is filed as in vivo. The settings on record: oral 100 - 1000 mg/kg, female Wistar rats, observed over 24 h. How it is done: Three female Wistar rats (4-week old) in each group were administered orally with 100 - 1000 mg/kg of a test compound in a volume of 10 ml/kg as suspended in an aqueous solution of 0.5% carboxymethylcellulose sodium or 5% gum arabic and were subsequently observed over 24 h. Compounds 1 - 6 were as identified above.

A short description of data set [3]: Uric acid excreting and diuretic actions in rats. The note with it: Rattus norvegicus; 30 mg/kg oral, female Wistar rats, urine collected up to 5 h, relative value with control = 100; read-out: Urine Volume (%). It is filed as in vivo.
Setting [4] is: read-out: Urinary excretion of uric acid (%).

Consider `O=C1CN(S(=O)(=O)C2CCCCC2)C(=O)N1` [Compound 1, 1-(cyclohexylsulfonyl)hydantoin], for which, in data set [1] (setting [4]), the response vs control in vivo at 300 mg/kg stood at 116% and the response vs control in vivo at 1000 mg/kg was 155%. Moreover, in data set [1] (read-out: Urine Volume (%)), the response vs control in vivo at 300 mg/kg was 96% and the response vs control in vivo at 1000 mg/kg stood at 124%. Further, the “Acute toxicity (Minimal dose causing death: mg/kg)” value (from here on “Acute toxicity”) in data set [2] is recorded as >1000 (no death case at 1000) mg/kg.

Regarding `O=C1CN(S(=O)(=O)C2CCCCCC2)C(=O)N1` [Compound 2, 1-(cycloheptylsulfonyl)hydantoin], the response vs control in vivo at 300 mg/kg in data set [1] (setting [4]) stood at 152%; in data set [1] (read-out: Urine Volume (%)), 159%. For the same molecule, the response vs control in vivo at 1000 mg/kg was 256% in data set [1] (setting [4]) and 170% in data set [1] (read-out: Urine Volume (%)). Moreover, in data set [2], the “Acute toxicity” value was >1000 (no death case at 1000) mg/kg.

Regarding `O=C1CN(S(=O)(=O)C2CCCCCCC2)C(=O)N1` [Compound 3, 1-(cyclooctylsulfonyl)hydantoin], in data set [1] (setting [4]), the response vs control in vivo at 300 mg/kg was determined as 103% and the response vs control in vivo at 1000 mg/kg is 245%. Moreover, in data set [1] (read-out: Urine Volume (%)), the response vs control in vivo at 300 mg/kg is 109% and the response vs control in vivo at 1000 mg/kg was 95%. Besides, the “Acute toxicity” value in data set [2] is >1000 (no death case at 1000) mg/kg.

As for `Cc1cc(S(=O)(=O)N2CC(=O)NC2=O)c(C)s1` [Compound 4, 1-(2,5-dimethylthien-3-ylsulfonyl)hydantoin], in data set [1] (setting [4]), the response vs control in vivo at 300 mg/kg came to 104% and the response vs control in vivo at 1000 mg/kg is 145%. For the same molecule, in data set [1] (read-out: Urine Volume (%)), the response vs control in vivo at 300 mg/kg stood at 111% and the response vs control in vivo at 1000 mg/kg turned out to be 207%. Moreover, in data set [2], the “Acute toxicity” value is given as >1000 (no death case at 1000) mg/kg.

For the molecule `O=C1CN(S(=O)(=O)C2Cc3ccccc3C2)C(=O)N1` [Compound 5, 1-(indan-2-ylsulfonyl)hydantoin], in data set [1] (setting [4]), the response vs control in vivo at 300 mg/kg is 102% and the response vs control in vivo at 1000 mg/kg was found to be 144%. Moreover, in data set [1] (read-out: Urine Volume (%)), the response vs control in vivo at 300 mg/kg was 135% and the response vs control in vivo at 1000 mg/kg came to 144%. The “Acute toxicity” value in data set [2] is reported as >1000 (no death case at 1000) mg/kg.

Take `O=C1CN(S(=O)(=O)c2cc(Cl)ccc2Cl)C(=O)N1` [Compound 6, 1-(2,5-dichlorophenylsulfonyl)hydantoin]: in data set [1] (setting [4]), the response vs control in vivo at 300 mg/kg is 96% and the response vs control in vivo at 1000 mg/kg is 151%. In data set [1] (read-out: Urine Volume (%)), the response vs control in vivo at 300 mg/kg amounted to 151% and the response vs control in vivo at 1000 mg/kg came out at 223%. Besides, in data set [2], the “Acute toxicity” value is reported as >1000 (no death case at 1000) mg/kg.

For `NS(=O)(=O)c1cc(C(=O)O)c(NCc2ccco2)cc1Cl` [Furosemide, furosemide, reference compound], the urine volume result in data set [1] is “an increase in the urine volume was observed”. Also, the response vs control in vivo at 30 mg/kg in data set [3] was determined as 215%.

Turning to `CCCN(CCC)S(=O)(=O)c1ccc(C(=O)O)cc1` [Probenecid, probenecid, reference compound], in data set [1] (setting [4]), the response vs control in vivo at 300 mg/kg was determined as 78% and the response vs control in vivo at 1000 mg/kg is 167%. Moreover, in data set [1] (read-out: Urine Volume (%)), the response vs control in vivo at 300 mg/kg came to 60% and the response vs control in vivo at 1000 mg/kg was found to be 20%. For the same molecule, the urine volume result in data set [1] is listed as “significantly decreased the urine volume”.
